Results: publication PMC7997574, “Lead Optimization of Benzoxazolone Carboxamides as Orally Bioavailable and CNS Penetrant Acid Ceramidase Inhibitors” (Journal of Medicinal Chemistry, 2020)
Converted amounts (≈) assume the structure as drawn. Like-named read-outs stand apart in the source and are kept apart here.

What was measured:
[1] = Aqueous kinetic solubility assay; assay type: physicochemical; conditions: PBS, pH 7.4
Procedure: The aqueous kinetic solubility was determined from a 10 mM MeCN stock solution of test compound in Phosphate-Buffered Saline (PBS) at pH 7.4. The study was performed by incubation of an aliquot of 10 mM MeCN stock solution in PBS (pH 7.4) at a target concentration of 250 μM. The incubation was carried out under shaking at 25 °C for 1 h followed by centrifugation at 21100 × g for 30 min. The supernatant was analyzed by UPLC/MS for the quantification of the dissolved compound (in μM) by UV at a specific wavelength (215 nm). […] The UPLC/MS analyses were performed on a Waters ACQUITY UPLC/MS system consisting of a single quadrupole detector (SQD) Mass Spectrometer (MS) equipped with an Electrospray Ionization (ESI) interface and a Photodiode Array Detector (PDA). The PDA range was 210–400 nm. ESI in positive mode was used in the mass scan range of 100–650 Da. The analyses were run on an ACQUITY UPLC BEH C18 column (50 × 2.1 mm ID, particle size 1.7 μm) with a VanGuard BEH C18 precolumn (5 × 2.1 mm ID, particle size 1.7 μm), using 10 mM NH4OAc in H2O at pH 5 adjusted with AcOH (A) and 10 mM NH4OAc in MeCN/H2O (95:5) at pH 5 (B) as the mobile phase. Values are reported as mean values of ≥2 experiments performed.

[2] = In vitro plasma stability study; assay type: in vitro ADME; conditions: mouse plasma; read-out: m-plasma t1/2
Procedure: Freshly prepared 10 mM MeCN stock solution of test compound was diluted 50-fold with DMSO/H2O (1:1) and incubated at 37 °C for 2 h with mouse plasma added in 5% DMSO (preheated at 37 °C for 10 min). The final concentration was 2 μM. At each time point (0, 5, 15, 30, 60, and 120 min), 50 μL of incubation mixture was diluted with 200 μL of cold MeCN spiked with 200 nM internal standard followed by centrifugation at 3300 × g for 20 min. The supernatant was further diluted with H2O (1:1) for analysis. The concentration of test compound was quantified by LC/MS/MS on a Waters ACQUITY UPLC/MS TQD system consisting of a TQD MS equipped with an ESI interface. The analyses were run on an ACQUITY UPLC BEH C18 (50 × 2.1 mm ID, particle size 1.7 μm) with a VanGuard BEH C18 precolumn (5 × 2.1 mm ID, particle size 1.7 μm) at 40 °C. For each compound, the appropriate mobile phase was chosen. ESI was applied in positive mode. The response factors, calculated on the basis of the internal standard peak area, were plotted over time. When possible, response vs time profiles were fitted with Prism (GraphPad Software, Inc., USA) to estimate compound t1/2 in plasma. Values are the mean of at least two independent experiments performed in two technical replicates.

[3] = In vitro microsomal stability study; assay type: in vitro ADME; conditions: mouse liver microsomes; for half-life at 1 h, 4.6 µM / half-life at 4.6 μM: pH 7.4, read-out: m-LM t1/2
Procedure: Freshly prepared 10 mM MeCN stock solution of test compound was preincubated at 37 °C for 15 min with mouse liver microsomes added in 0.1 M Tris HCl buffer (pH 7.4). The final concentration was 4.6 μM. After preincubation, the cofactors (NADPH, G6P, G6PDH, and MgCl2 predissolved in 0.1 M Tris HCl) were added to the incubation mixture, and the incubation was continued at 37 °C for 1 h. At each time point (0, 5, 15, 30, and 60 min), 30 μL of incubation mixture was diluted with 200 μL of cold MeCN spiked with 200 nM internal standard followed by centrifugation at 3300 × g for 15 min. The supernatant was further diluted with H2O (1:1) for analysis. The concentration of the test compound was quantified by LC/MS/MS on a Waters ACQUITY UPLC/MS TQD system consisting of a TQD MS equipped with an ESI interface. The analyses were run on an ACQUITY UPLC BEH C18 (50 × 2.1 mm ID, particle size 1.7 μm) with a VanGuard BEH C18 precolumn (5 × 2.1 mm ID, particle size 1.7 μm) at 40 °C. For each compound, the appropriate mobile phase was chosen. ESI was applied in positive mode. The percentage of test compound remaining at each time point relative to t = 0 was calculated. t1/2 was determined by a one-phase decay equation using a nonlinear regression of compound concentration vs time. Values are the mean of at least two independent experiments performed in two technical replicates.

[4] = target: T1, AC (Homo sapiens, UniProt Q13510); assay: Fluorogenic hAC assay on hAC-enriched lysate of HEK293 cells; assay type: biochemical; parameters: expressed in transfected cells; conditions: for fold more potent than 23e (hAC): vs 23e hAC IC50 = 0.363 μM
T1 sequence (Q13510 22-395): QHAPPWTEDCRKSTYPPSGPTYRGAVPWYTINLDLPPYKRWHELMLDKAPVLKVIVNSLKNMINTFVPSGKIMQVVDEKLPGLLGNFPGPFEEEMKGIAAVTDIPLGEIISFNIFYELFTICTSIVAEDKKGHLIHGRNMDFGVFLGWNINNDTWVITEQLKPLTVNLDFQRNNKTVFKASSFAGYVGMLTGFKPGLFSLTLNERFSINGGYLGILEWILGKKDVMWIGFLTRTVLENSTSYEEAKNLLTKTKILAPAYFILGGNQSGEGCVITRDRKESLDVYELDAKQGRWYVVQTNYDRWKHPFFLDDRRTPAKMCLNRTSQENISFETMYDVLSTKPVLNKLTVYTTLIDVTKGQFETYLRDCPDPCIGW
Procedure: HEK293 cells stably expressing hAC were grown in Dulbecco’s modified Eagle medium (DMEM) containing 10% FBS, 1% glutamine, 1 mM sodium pyruvate, and 500 μg mL^–1 G418. Cells were harvested, and pellets were stored at −80 °C until lysosomal-enriched lysate preparation. Cells were suspended in 20 mM Tris HCl (pH 7.5) with 0.32 M sucrose, sonicated, and centrifuged at 800 × g for 30 min at 4 °C. Supernatants were then centrifuged at 12000 × g for 30 min at 4 °C. Pellets were resuspended in PBS (pH 7.4) and subjected to three freeze–thaw cycles at −80 °C. The suspension was finally centrifuged at 105000 × g for 1 h at 4 °C, and protein concentration was measured in the supernatant with the bicinchoninic acid based protein assay. This hAC-enriched preparation allowed us to further optimize the enzymatic assay and to use small amounts of lysate (2 μg per well) at a 5 μM substrate (Rbm14–12) around its KM (KM = 5.0 μM).
The assay was performed in Optiplate 96-well black plates, with each reaction well containing a mixture of 25 mM NaOAc buffer (pH 4.5) and a fixed amount of protein (2 μg) in a volume of 85 μL. After 10 min of preincubation with test compounds (diluted 20× from DMSO stock solutions at different concentrations), the fluorogenic probe was added (diluted 40× from EtOH stock solution, final concentration 5 μM). After 3 h of incubation at 37 °C, reactions were stopped with 50 μL of MeOH and 100 μL of a 2.5 mg mL^–1 NaIO4 fresh solution in 100 mM glycine/NaOH buffer (pH 10.6). The plates were further incubated for 2 h at 37 °C in the dark, and fluorescence intensities were measured at excitation/emission wavelengths of 355/460 nm. Negative control samples consisted of the same incubation mixture in the absence of protein-enriched extracts. Data were plotted as a function of compound concentrations. IC50 values were calculated by nonlinear regression analysis using GraphPad Prism 5 (GraphPad Software Inc., CA, USA) applying a standard slope curve fitting. The reported IC50 values are the mean of at least three independent experiments performed in three technical replicates.

[5] = hAC expressed in HEK-293 cells, read-out: hAC IC50 (μM)±SD
[6] = supplementary csv, read-out: hAC, IC50

| solubility at 1 h [1] [µM] | half-life at 2 µM [2] [min] | half-life at 1 h, 4.6 µM [3] [min] | IC50 [4, 5] [µM] | half-life at 4.6 μM [3] [min] | fold more potent than 23e (hAC) [4] [fold] | m-LM [% at 60 min] ([3]; % remaining at 60 min) [%] | IC50 [4, 6] [µM] | half-life at 2 μM [2] [min] | Compound |
| --- | --- | --- | --- | --- | --- | --- | --- | --- | --- |
| < 1 | 20 | 30 | 0.092 ± 0.026 | – | – | – | – | – | CN1CCN(c2ccc3c(c2)oc(=O)n3C(=O)NCCCCc2ccccc2)CC1=O [23j, 6-(4-Methyl-3-oxo-piperazin-1-yl)-2-oxo-N-(4-phenylbutyl)-1,3-benzoxazole-3-carboxamide] |
| 20 | 30 | 45 | 0.363 ± 0.18 | – | – | – | – | – | Cl.O=C(NCCCCc1ccccc1)n1c(=O)oc2cc(N3CCNCC3)ccc21 [23e, 2-Oxo-N-(4-phenylbutyl)-6-piperazin-1-yl-1,3-benzoxazole-3-carboxamide Hydrochloride] |
| 20 (≈ 8.45 µg/mL) | 20 | – | 0.052 ± 0.04 | < 5 | ~7 | – | – | – | CN1CCN(c2ccc3c(c2)oc(=O)n3C(=O)NCCCCc2ccccc2)C(=O)C1 [23k, 6-(4-Methyl-2-oxo-piperazin-1-yl)-2-oxo-N-(4-phenylbutyl)-1,3-benzoxazole-3-carboxamide] |
| < 1 | – | – | 0.056 ± 0.006 | < 5 | ~7 | – | – | < 5 | CCN1CCN(c2ccc3c(c2)oc(=O)n3C(=O)NCCCCc2ccccc2)CC1 [23g, 6-(4-Ethylpiperazin-1-yl)-2-oxo-N-(4-phenylbutyl)-1,3-benzoxazole-3-carboxamide] |

The next lines start with the compound.

| Compound | solubility at 1 h [1] [µM] | half-life at 2 µM [2] [min] | half-life at 1 h, 4.6 µM [3] [min] | IC50 [4, 5] [µM] | half-life at 4.6 μM [3] [min] | fold more potent than 23e (hAC) [4] [fold] | m-LM [% at 60 min] ([3]; % remaining at 60 min) [%] | IC50 [4, 6] [µM] | half-life at 2 μM [2] [min] |
| --- | --- | --- | --- | --- | --- | --- | --- | --- | --- |
| CN1CCC(c2ccc3c(c2)oc(=O)n3C(=O)NCCCCc2ccc(F)cc2)CC1 [22o, N-[4-(4-Fluorophenyl)butyl]-6-(1-methyl-4-piperidyl)-2-oxo-1,3-benzoxazole-3-carboxamide] | 22 (≈ 9.36 µg/mL) | 20 | 30 | 0.094 ± 0.03 | – | – | – | – | – |
| CN1CCC(c2ccc3c(c2)oc(=O)n3C(=O)NCCOCc2ccccc2)CC1 [22j, N-(2-Benzyloxyethyl)-6-(1-methyl-4-piperidyl)-2-oxo-1,3-benzoxazole-3-carboxamide] | 73 (≈ 29.9 µg/mL) | 40 | 30 | 0.215 ± 0.013 | – | – | – | – | – |
| CN1CCC(c2ccc3c(c2)oc(=O)n3C(=O)NCCCCc2ccccc2)CC1 [22e, 6-(1-Methyl-4-piperidyl)-2-oxo-N-(4-phenylbutyl)-1,3-benzoxazole-3-carboxamide] | 120 (≈ 48.9 µg/mL) | 50 | 40 | 0.129 ± 0.008 | – | – | – | – | – |
| CCN1CCC(c2ccc3c(c2)oc(=O)n3C(=O)NCCCCc2ccccc2)CC1 [22f, 6-(1-Ethyl-4-piperidyl)-2-oxo-N-(4-phenylbutyl)-1,3-benzoxazole-3-carboxamide] | 198 (≈ 83.5 µg/mL) | 50 | 60 | 0.092 ± 0.043 | – | – | – | – | – |
| O=C(NCCCCc1ccccc1)n1c(=O)oc2cc(C3CCN(CC(F)F)CC3)ccc21 [22r, 6-[1-(2,2-Difluoroethyl)-4-piperidyl]-2-oxo-N-(4-phenylbutyl)-1,3-benzoxazole-3-carboxamide] | < 1 | 50 | 20 | 0.095 ± 0.03 | – | – | – | – | – |
| CN1CCC(c2ccc3c(c2)oc(=O)n3C(=O)NCCCCc2ccccc2)CC1=O (stereo not shown) [22q, 6-(1-Methyl-2-oxo-4-piperidyl)-2-oxo-N-(4-phenylbutyl)-1,3-benzoxazole-3-carboxamide] | 20 (≈ 8.43 µg/mL) | 36 | 35 | 0.105 ± 0.055 | – | – | – | – | – |
| CC(C)CNC(=O)n1c(=O)oc2cc(C3CCCN(C)C3)ccc21 (racemic) [compound 27, (±)-N-Isobutyl-6-(1-methyl-3-piperidyl)-2-oxo-1,3-benzoxazole-3-carboxamide] | > 250 | 50 | – | 1.75 ± 0.705 | > 60 | – | 70 | 1.62 ± 0.649 | – |
| CC(=O)N1CCC(c2ccc3c(c2)oc(=O)n3C(=O)NCCCCc2ccccc2)CC1 [22i, 6-(1-Acetyl-4-piperidyl)-2-oxo-N-(4-phenylbutyl)-1,3-benzoxazole-3-carboxamide] | < 1 | 30 | 60 | 0.064 ± 0.029 | – | – | – | – | – |
| CC(C)CNC(=O)n1c(=O)oc2cc(C3CCCCN3C)ccc21 (racemic) [compound 26, (±)-N-Isobutyl-6-(1-methyl-2-piperidyl)-2-oxo-1,3-benzoxazole-3-carboxamide] | 190 (≈ 63 µg/mL) | 30 | 15 | 1.01 ± 0.432 | – | – | – | 1.19 ± 0.435 | – |
| CC(C)CN1CCC(c2ccc3c(c2)oc(=O)n3C(=O)NCCCCc2ccccc2)CC1 [22h, 6-(1-Isobutyl-4-piperidyl)-2-oxo-N-(4-phenylbutyl)-1,3-benzoxazole-3-carboxamide] | < 1 | – | – | 0.12 ± 0.03 | 60 | – | – | – | 60 |
